Assay results published in ChEMBL document CHEMBL1201862, “PubChem BioAssay data set” (2004).
Calls of active or inactive are those of the source.

Assays:
[1] = target: T1, CAAX prenyl protease 2 (Homo sapiens, UniProt Q9Y256); test: inhibition of Ras-converting CAAX protease Rce1 – biochemical, yeast membranes, quenched-peptide fluorescence, cherry-pick, dose response (AID 588849)
T1 sequence (Q9Y256 whole entry): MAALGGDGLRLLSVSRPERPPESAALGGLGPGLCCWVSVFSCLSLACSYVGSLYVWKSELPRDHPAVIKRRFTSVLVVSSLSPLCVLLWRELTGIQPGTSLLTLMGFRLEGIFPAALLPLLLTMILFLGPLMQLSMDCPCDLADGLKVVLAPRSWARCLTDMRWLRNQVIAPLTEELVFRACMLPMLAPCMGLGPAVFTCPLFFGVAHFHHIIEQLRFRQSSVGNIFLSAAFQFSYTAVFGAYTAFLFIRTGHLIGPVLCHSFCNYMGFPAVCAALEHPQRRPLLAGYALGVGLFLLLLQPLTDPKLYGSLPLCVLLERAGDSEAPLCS

[2] = target: T2, Corticotropin-releasing factor receptor 2/Corticotropin-releasing factor-binding protein (Homo sapiens, UniProt P24387+Q13324); test: Dose Response confirmation of uHTS hits for small molecule antagonists of the CRF-binding protein and CRF-R2 receptor complex.; type: functional; conditions: read-out: IC50_Mean
T2 sequence (Q13324 whole entry): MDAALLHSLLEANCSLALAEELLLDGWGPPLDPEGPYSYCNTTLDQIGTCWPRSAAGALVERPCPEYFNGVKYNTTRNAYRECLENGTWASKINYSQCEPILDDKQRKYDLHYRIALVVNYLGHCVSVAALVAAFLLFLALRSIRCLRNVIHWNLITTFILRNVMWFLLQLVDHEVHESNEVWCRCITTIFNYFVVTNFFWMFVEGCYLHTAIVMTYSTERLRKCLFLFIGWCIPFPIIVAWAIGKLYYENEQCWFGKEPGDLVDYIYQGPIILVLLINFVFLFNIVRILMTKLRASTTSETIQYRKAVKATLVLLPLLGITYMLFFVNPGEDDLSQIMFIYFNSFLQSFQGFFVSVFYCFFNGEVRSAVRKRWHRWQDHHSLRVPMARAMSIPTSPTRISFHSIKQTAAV
T2 sequence (P24387 whole entry): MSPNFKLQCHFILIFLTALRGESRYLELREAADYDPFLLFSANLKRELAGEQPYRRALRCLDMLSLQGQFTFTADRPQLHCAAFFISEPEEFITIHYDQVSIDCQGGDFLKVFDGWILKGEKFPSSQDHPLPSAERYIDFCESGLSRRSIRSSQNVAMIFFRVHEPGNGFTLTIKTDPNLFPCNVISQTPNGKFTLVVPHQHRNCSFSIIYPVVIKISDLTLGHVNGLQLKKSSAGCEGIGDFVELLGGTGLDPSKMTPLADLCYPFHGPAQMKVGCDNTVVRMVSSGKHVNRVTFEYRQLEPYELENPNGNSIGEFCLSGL

[3] = target: T2, Corticotropin-releasing factor receptor 2/Corticotropin-releasing factor-binding protein; test: activators of CRF receptor 2 with binding protein – uHTS hits, confirmation (AID 602473); type: functional; conditions: read-out: EC50_Mean
[4] = blockers of CRF-binding protein–CRF-R2 complex – cell-based, uHTS hits, 384-well, dose response (AID 651639); type: functional, Homo sapiens; conditions: read-out: IC50_Mean
[5] = target: Cytochrome P450 2C9 (Homo sapiens, UniProt P11712)
Cytochrome P450 2C9, sequence (P11712 whole entry): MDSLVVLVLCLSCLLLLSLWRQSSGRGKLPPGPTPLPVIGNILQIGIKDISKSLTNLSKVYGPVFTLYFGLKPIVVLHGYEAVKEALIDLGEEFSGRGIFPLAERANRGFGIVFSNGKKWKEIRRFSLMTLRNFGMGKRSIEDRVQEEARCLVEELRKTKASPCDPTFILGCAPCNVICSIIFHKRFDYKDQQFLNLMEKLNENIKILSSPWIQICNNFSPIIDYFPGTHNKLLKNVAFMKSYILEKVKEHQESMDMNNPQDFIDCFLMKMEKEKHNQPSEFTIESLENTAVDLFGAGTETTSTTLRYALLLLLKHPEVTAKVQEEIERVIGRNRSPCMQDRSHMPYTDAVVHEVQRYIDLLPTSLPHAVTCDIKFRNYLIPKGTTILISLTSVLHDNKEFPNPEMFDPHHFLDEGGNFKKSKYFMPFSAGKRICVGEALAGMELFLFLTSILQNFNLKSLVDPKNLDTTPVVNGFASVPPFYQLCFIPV

[6] = target: T3, Bcl-2-related protein A1 (Mus musculus, UniProt Q07440); type: functional;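 further: confirmatory dose–response counterscreen on Bfl-1, used to check hits from a UBC13 polyubiquitin inhibitor campaign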
T3 sequence (Q07440 whole entry): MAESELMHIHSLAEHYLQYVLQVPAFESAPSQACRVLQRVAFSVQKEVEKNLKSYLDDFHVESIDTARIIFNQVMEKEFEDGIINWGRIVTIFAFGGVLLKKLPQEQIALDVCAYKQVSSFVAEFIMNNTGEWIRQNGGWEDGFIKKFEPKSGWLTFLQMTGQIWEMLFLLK

[7] = target: T4, Ubiquitin-conjugating enzyme E2 N (Homo sapiens, UniProt P61088); type: functional
T4 sequence (P61088 whole entry): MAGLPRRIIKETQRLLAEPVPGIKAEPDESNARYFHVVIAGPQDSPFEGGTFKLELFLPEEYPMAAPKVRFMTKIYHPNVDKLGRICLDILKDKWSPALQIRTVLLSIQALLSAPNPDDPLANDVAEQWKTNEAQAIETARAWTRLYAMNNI

[8] = target: T4, Ubiquitin-conjugating enzyme E2 N; type: functional; remark: listed apart in the source
[9] = target: DNA repair protein RAD52 homolog (Homo sapiens, UniProt P43351); type: functional, biochemical
DNA repair protein RAD52 homolog, sequence (P43351 whole entry): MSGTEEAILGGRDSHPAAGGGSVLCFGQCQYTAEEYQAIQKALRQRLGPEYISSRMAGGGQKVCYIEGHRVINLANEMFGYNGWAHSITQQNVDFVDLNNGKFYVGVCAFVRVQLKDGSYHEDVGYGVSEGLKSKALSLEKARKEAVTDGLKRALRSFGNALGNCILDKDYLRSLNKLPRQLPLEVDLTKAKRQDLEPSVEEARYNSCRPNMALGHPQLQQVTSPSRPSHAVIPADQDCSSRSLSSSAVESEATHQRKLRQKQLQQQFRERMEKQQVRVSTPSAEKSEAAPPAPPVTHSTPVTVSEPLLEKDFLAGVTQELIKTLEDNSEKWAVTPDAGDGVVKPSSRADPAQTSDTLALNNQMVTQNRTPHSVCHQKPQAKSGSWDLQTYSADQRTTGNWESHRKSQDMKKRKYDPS

[10] = target: T5, Methionyl-tRNA synthetase, putative (Trypanosoma brucei brucei, UniProt Q38C91); type: functional, Trypanosoma brucei brucei strain 927/4 GUTat10.1
T5 sequence (Q38C91 whole entry): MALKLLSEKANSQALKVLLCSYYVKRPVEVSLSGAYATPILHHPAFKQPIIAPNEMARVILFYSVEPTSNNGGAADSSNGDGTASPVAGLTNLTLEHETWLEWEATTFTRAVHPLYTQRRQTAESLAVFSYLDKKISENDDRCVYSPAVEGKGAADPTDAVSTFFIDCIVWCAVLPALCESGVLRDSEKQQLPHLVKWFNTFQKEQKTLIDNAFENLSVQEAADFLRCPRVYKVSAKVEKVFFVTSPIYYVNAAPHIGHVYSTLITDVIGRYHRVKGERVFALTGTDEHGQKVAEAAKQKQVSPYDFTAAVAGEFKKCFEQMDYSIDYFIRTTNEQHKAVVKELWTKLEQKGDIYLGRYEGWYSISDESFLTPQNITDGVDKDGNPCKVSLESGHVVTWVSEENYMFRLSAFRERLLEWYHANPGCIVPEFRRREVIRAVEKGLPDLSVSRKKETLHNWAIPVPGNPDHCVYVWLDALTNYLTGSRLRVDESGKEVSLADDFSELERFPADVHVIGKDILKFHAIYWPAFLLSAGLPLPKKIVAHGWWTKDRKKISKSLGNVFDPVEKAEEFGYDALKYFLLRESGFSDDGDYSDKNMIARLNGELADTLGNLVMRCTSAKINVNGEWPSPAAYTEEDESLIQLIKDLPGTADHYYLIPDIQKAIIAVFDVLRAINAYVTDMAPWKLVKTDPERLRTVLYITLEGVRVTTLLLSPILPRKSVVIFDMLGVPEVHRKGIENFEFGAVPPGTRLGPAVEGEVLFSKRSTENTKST

[11] = Counterscreen for inhibitors of Trypanosoma brucei methionyl tRNA synthetase (MetRS): Luminescence-based cell-based high throughput dose response assay to identify compounds that are cytotoxic to Jurkat human T lymphocyte cells.; type: functional
[12] = target: T5, Methionyl-tRNA synthetase, putative; type: functional, Trypanosoma brucei brucei strain 927/4 GUTat10.1; remark: listed apart in the source
[13] = Late stage assay provider results from the probe development effort to identify selective inhibitors of heat shock protein 90 (HSP90): Absorbance-based cell proliferation assay in SKBR3 cells.; type: functional; conditions: SK-BR-3
[14] = Late stage assay provider results from the probe development effort to identify selective inhibitors of heat shock protein 90 (HSP90): Absorbance-based cell proliferation assay in MCF7 cells.; type: functional
[15] = target: T6, Oxysterols receptor LXR-beta (Homo sapiens, UniProt P55055); type: functional, cell-based;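 further: agonist activity at LXR measured by a cell-based luminescence readout across a dose range, run as a counterscreen for daf-12 agonists; HEK293 cells with Gal4-LXR fusion and GAL4-driven luciferase reporter; potency for activation of Gal4-LXR reporter so compounds are agonists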
T6 sequence (P55055 whole entry): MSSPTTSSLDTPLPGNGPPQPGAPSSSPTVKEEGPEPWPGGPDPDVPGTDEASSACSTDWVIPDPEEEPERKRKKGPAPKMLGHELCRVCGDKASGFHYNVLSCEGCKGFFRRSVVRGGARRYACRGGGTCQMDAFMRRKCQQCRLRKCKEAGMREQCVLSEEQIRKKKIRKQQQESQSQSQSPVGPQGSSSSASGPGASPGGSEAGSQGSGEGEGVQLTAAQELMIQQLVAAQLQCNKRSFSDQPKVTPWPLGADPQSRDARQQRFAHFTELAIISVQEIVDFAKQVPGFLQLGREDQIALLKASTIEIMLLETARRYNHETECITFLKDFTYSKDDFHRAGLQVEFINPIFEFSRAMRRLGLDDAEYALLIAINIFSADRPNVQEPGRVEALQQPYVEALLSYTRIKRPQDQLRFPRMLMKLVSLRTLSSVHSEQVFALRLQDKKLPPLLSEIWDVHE

[16] = target: fMet-Leu-Phe receptor (Homo sapiens, UniProt P21462); test: formyl peptide receptor binders – dose response (AID 519); type: functional
fMet-Leu-Phe receptor, sequence (P21462 whole entry): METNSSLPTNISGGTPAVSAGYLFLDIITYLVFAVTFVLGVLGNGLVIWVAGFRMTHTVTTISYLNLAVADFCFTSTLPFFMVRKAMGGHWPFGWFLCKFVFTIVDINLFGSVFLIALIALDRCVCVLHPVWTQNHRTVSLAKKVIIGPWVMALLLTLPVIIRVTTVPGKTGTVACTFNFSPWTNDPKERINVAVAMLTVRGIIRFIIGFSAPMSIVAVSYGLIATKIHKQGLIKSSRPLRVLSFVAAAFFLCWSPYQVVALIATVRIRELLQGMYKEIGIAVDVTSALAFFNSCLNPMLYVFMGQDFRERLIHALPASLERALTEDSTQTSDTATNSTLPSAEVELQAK

[17] = tested on: HEK293; test: viability loss in HEK293T cells – cell-based, ATP luminescence, cherry-pick samples, cytotoxicity control, dose response (AID 687005); type: functional; conditions: Homo sapiens;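 further: cells exposed to compound for 48 hours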
[18] = HEK293 Cytotoxicity Assay Measured in Cell-Based System Using Plate Reader - 7071-01_Inhibitor_Dose_CherryPick_Activity_Set2.; type: functional
[19] = target: Beta-lactamase (Pseudomonas aeruginosa, UniProt Q79MP6);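 further: biochemical dose-response test of metallo-beta-lactamase enzyme inhibition, read out by epi-absorbance; purified recombinant IMP-1 metallo-beta-lactamase with nitrocefin as substrate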
Beta-lactamase (Pseudomonas aeruginosa, UniProt Q79MP6), sequence (Q79MP6 whole entry): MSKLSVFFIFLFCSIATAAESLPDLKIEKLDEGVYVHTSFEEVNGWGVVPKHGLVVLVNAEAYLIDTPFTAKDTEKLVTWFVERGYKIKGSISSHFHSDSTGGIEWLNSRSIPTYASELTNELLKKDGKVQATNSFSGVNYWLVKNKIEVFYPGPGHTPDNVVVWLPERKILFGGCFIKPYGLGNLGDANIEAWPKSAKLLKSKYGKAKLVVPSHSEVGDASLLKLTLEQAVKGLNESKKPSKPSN

[20] = target: Beta-lactamase (Salmonella choleraesuis (strain SC-B67), UniProt Q5J463)
Beta-lactamase (Salmonella choleraesuis (strain SC-B67), UniProt Q5J463), sequence (Q5J463 whole entry): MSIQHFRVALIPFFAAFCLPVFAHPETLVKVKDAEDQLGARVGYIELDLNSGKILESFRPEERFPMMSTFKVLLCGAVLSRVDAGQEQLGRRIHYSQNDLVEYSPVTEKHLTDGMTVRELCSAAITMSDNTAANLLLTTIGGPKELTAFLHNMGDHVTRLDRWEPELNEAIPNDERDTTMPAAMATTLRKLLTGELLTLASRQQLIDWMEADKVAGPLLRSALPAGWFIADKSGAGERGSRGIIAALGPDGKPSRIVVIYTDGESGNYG

[21] = target: T7, Probable nicotinate-nucleotide adenylyltransferase (Staphylococcus aureus (strain N315), UniProt P65502); type: functional, Staphylococcus aureus subsp. aureus N315;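 on IC50 Mean: confirmatory dose-response retesting of NadD inhibitor hits first found in an ultra-high-throughput screen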
T7 sequence (P65502 whole entry): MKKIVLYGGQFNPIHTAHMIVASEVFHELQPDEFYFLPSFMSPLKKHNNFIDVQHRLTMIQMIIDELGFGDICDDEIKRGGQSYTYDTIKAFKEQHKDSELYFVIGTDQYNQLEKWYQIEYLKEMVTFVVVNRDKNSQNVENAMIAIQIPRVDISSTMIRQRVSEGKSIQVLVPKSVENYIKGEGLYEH

[22] = target: T7, Probable nicotinate-nucleotide adenylyltransferase; type: functional, Staphylococcus aureus subsp. aureus N315; conditions: read-out: IC50_Mean
[23] = Late stage counterscreen for inhibitors of Trypanosoma brucei methionyl tRNA synthetase (MetRS): Luminescence-based cell-based high throughput dose response assay to identify compounds that are cytotoxic to Jurkat human T lymphocyte cells.; type: functional
[24] = blockers of HIV-1 envelope-mediated cell-cell fusion – cherry-pick, dose response (AID 652057); type: functional, cell-based
[25] = viability loss in CEM21 cells – cell-based, CellTiter-Glo luminescence, cherry-picked, cytotoxicity control for viral fusion inhibitor project, dose response (AID 652042); type: functional;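 further: potency for signal decrease meaning cytotoxicity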
[26] = blockers of HIV-1 ZM109 envelope-driven cell-cell fusion – HeLa effector, CEM target cells, luciferase, cherry-pick, dose response (AID 652058); type: functional, cell-based;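 further: luciferase signal from HIV-1 Env mediated cell-cell fusion of effector and target cells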
[27] = HIV-1 AD8 envelope cell-cell fusion blockers – cherry-pick, dose response (AID 652062); type: functional, cell-based;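 further: luciferase signal from cell-cell fusion driven by HIV-1 clade B AD8 Env; potency is for inhibitors of fusion seen as a drop in luminescence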
[28] = target: Disintegrin and metalloproteinase domain-containing protein 17 (Homo sapiens, UniProt P78536); test: exosite inhibitors of ADAM17, dose response, biochemical (AID 743260)
Disintegrin and metalloproteinase domain-containing protein 17, sequence (P78536 whole entry, the tested form may be a part): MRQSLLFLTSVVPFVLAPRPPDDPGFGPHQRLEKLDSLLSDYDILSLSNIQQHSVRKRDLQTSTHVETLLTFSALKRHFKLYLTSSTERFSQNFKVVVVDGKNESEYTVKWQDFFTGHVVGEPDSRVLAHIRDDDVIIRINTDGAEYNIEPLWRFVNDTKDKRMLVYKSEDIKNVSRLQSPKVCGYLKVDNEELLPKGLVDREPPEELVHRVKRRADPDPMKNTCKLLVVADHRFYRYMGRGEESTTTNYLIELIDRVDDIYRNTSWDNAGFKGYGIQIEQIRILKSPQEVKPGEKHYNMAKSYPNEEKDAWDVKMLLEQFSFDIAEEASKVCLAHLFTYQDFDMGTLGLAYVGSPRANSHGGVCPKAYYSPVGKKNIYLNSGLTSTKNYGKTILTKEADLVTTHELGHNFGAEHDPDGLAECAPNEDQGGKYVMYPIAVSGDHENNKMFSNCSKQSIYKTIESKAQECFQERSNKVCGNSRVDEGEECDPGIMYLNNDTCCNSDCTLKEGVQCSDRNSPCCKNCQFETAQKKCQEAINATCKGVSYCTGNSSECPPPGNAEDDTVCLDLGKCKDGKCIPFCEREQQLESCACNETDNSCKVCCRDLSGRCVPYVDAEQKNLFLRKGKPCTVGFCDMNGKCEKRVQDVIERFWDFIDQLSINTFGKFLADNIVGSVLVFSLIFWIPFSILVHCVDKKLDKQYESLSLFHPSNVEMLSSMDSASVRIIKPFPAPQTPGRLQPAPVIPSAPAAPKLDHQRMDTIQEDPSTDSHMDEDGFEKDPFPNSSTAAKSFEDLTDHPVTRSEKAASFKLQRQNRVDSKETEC

[29] = inhibition of ADAM10 peptide cleavage – biochemical, FRET peptide substrate, recombinant human ADAM10, selectivity assay for ADAM17 exosite inhibitor project, dose response (AID 743259);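 further: ADAM10 enzyme cleaving a FRET peptide substrate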
[30] = tested on: HeLa; test: viability loss in HeLa cells – cell-based, ATP luminescence, cherry-pick samples, cytotoxicity control, dose response (AID 687004); type: functional; conditions: Homo sapiens
[31] = target: Beta-galactosidase (Escherichia coli, UniProt Q8VNN2); test: Dose response counterscreen for EBI2 assay utilizing the enzyme, b-galactosidase.; type: functional
Beta-galactosidase, sequence (Q8VNN2 whole entry): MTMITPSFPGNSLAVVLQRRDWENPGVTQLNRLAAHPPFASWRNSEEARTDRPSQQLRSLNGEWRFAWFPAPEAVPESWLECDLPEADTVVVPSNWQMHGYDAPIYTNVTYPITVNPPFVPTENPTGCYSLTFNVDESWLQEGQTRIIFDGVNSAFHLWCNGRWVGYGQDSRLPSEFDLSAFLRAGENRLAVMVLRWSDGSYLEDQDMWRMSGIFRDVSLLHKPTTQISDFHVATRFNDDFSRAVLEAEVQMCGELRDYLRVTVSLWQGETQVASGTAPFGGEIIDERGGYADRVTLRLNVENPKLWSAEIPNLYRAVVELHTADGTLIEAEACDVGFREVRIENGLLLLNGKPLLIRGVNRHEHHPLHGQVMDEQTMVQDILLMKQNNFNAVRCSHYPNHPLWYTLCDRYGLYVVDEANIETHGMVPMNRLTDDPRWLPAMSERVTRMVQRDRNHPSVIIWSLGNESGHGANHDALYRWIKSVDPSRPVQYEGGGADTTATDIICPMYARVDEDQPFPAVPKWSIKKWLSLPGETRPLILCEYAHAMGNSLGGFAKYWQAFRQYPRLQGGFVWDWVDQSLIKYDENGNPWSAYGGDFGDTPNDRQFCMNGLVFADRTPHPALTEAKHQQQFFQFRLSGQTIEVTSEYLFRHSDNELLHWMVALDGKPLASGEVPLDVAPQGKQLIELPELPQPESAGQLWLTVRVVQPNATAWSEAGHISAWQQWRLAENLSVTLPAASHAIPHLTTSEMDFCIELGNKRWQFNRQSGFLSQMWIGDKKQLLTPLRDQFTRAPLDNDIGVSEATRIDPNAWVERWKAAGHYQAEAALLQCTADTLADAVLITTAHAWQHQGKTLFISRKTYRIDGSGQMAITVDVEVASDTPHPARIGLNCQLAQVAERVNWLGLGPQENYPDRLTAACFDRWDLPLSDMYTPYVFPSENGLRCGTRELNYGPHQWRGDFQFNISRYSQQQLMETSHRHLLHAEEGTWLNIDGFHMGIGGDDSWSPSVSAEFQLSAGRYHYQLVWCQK

## CSc1nnc(-c2sc(-c3ccccc3)nc2C)n1C
[1]
  AC50: > 100 µM (inactive)
[2]
  IC50: < 0.368 µM (active)
[3]
  EC50: > 53 µM (inactive)
[4]
  IC50: > 20 µM (inactive)
[5]
  AC50: 0.0708 µM (inconclusive)

## Cc1ccc(C(=O)NCCN2C3=NC[C@@H](Cc4ccccc4)N3C[C@H]2Cc2ccc(O)cc2)cc1Br
[6]
  IC50: > 20 µM (inactive)
[7]
  IC50: 19.4 µM (active)
[8]
  IC50: > 20 µM (inactive)
[9]
  AC50: 19.2 µM (active)

## C#Cc1ccc([C@@H]2C=C(C(=O)NCc3nc4ccccc4[nH]3)O[C@H](OCC)[C@H]2CCCO)cc1
[10]
  IC50: 22.3 µM (inactive)
[11]
  IC50: 35.8 µM (inactive)
[12]
  IC50: 8.94 µM (active)

## O=C(Nc1ccc(F)cc1)c1coc(=O)c(Br)c1
[13]
  IC50: 8.8 µM (active)
[14]
  IC50: 3.4 µM (active)

## CC1CCC(NC(=O)c2cccn2C)CC1 (centres undefined)
[15]
  EC50: > 67.6 µM (inactive)

## CCS(=O)(=O)Nc1cc(-c2nc3cccnc3s2)ccc1C
[15]
  EC50: > 67.5 µM (inactive)

## COCCCN1C(=O)C(O)=C(C(=O)c2ccco2)C1c1ccc(Br)cc1 (centres undefined)
[16]
  Ki: 14.7 µM (active)

## C[C@@H]1CCCCO[C@@H](CN(C)S(=O)(=O)c2ccc(F)cc2)[C@@H](C)CN([C@@H](C)CO)C(=O)c2cc(NS(=O)(=O)c3ccc(F)cc3)ccc2O1
[17]
  AC50: 17.1 µM (active)
[18]
  AC50: 17.1 µM (active)

## COCCCn1/c(=N/C(=O)c2ccccc2)c(C#N)cc2c(=O)n3cccc(C)c3nc21
[19]
  IC50: > 59.6 µM (inactive)
[20]
  IC50: > 59.6 µM (inactive)

## OCc1nc2ccccc2n1CC(O)Cn1ccc2ccccc21 (centres undefined)
[16]
  Ki: > 66.7 µM (inactive)

## CCn1cc(/C=N/NC(=O)c2cc3c(ccc4ccccc43)o2)c2ccccc21
[21]
  IC50: 40.7 µM (active)
[22]
  IC50: 80 µM (inactive)

## CCOC(=O)N1CCC(Nc2c(Nc3ccc(F)cc3)c(=O)c2=O)CC1
[10]
  IC50: 7.98 µM (active)
[11]
  IC50: 83.3 µM (inactive)
[12]
  IC50: 4.36 µM (active)
[23]
  IC50: > 83.3 µM (inactive)

## C[C@H](CO)N1C[C@H](C)[C@H](CN(C)S(=O)(=O)c2ccccc2)Oc2ccc(NC(=O)Nc3cccc4ccccc34)cc2CC1=O
[24]
  AC50: < 0.26 µM (active)
[25]
  AC50: 31.7 µM (active)
[26]
  AC50: < 0.26 µM (active)
[27]
  AC50: 0.685 µM (active)

## C[C@H](c1ccccc1)N1C[C@H](COCc2ccccc2)Oc2cc(N3CC[C@@H](O)C3)ccc2S1(=O)=O
[28]
  IC50: > 69.5 µM (inactive)
[29]
  IC50: 16 µM (inactive)

## O=C1OC(=O)/C(=C\Nc2cnc3ccccc3c2)C=C1Br
[13]
  IC50: 17.4 µM (inactive)
[14]
  IC50: 12.1 µM (inactive)

## Cc1ccc(N=C(S)Nc2ccc(Cl)c(Cl)c2)c(OC(F)F)c1
[30]
  AC50: 29.9 µM (active)
[17]
  AC50: 26.6 µM (active)
[18]
  AC50: 26.6 µM (active)

## O=C(SCC(O)C(O)CS)c1cccs1 (centres undefined)
[28]
  IC50: 3.76 µM (active)
[29]
  IC50: 40.5 µM (inactive)

## O=C(/C=C/c1ccccc1)N1CCN(c2ccccn2)CC1
[31]
  IC50: > 80 µM (inactive)

## O=C(NCc1nc2ccccc2[nH]1)C1=C[C@H](c2ccc(Br)cc2)C[C@H](OCCCCO)O1
[23]
  IC50: 66.7 µM (inactive)

## COc1ccccc1N1CCN(C(=O)c2cc3cc(C)ccc3[nH]2)CC1
[31]
  IC50: > 80 µM (inactive)
